Measured values as given in patent US20220282217A1, “COMPOSITIONS AND METHODS FOR PREPARING T CELL COMPOSITIONS AND USES THEREOF” (priority 2019, published 2022).
Like-named read-outs stand apart in the source and are kept apart here. Where a SMILES comes first, the peptide text is derived from it.

Molecular target: HLA-A02.01 (Homo sapiens, UniProt P04439, D140Y/D185E/D98H/E176V/E277Q/G131W/G231S/I119V/I121R/I166T/I218V/L300P/L318F/N151K/N90K/P208A/P217A/Q86G/Q94H/R138H/R169H/T345S)
Assay: Class I MHC peptide binding affinity (displacement of radiolabeled reference peptide)
Conditions: for IC50: allele A02.01, (nM))
Protocol: In brief, MHCI complexes were prepared and bound to radiolabeled reference peptides. Peptides were incubated at varying concentrations with these complexes for 2 days, and the amount of remaining radiolabeled peptide bound to […] was measured using size exclusion gel-filtration.

[1] = read-out: Observed Affinity (IC50

| Compound | IC50 [1] [nM] | also measured |
| --- | --- | --- |
| CC(C)[C@H](NC(=O)[C@H](CO)NC(=O)[C@H](CS)NC(=O)[C@H](CO)NC(=O)[C@H](CCCCN)NC(=O)[C@@H](NC(=O)[C@H](CCC(=O)O)NC(=O)[C@H](Cc1ccccc1)NC(=O)[C@H](Cc1ccccc1)NC(=O)[C@@H](N)Cc1ccccc1)[C@@H](C)O)C(=O)O (H-FFFETKSCSV-OH; N-terminus and C-terminus assumed) | 61.2 |  |
| CC(C)C[C@H](NC(=O)[C@H](C)N)C(=O)N[C@@H](CCC(N)=O)C(=O)N1CCC[C@H]1C(=O)N[C@@H](CC(C)C)C(=O)N[C@@H](CCC(N)=O)C(=O)N1CCC[C@H]1C(=O)N[C@@H](Cc1c[nH]cn1)C(=O)N[C@@H](C)C(=O)O (H-ALQPLQPHA-OH; N-terminus and C-terminus assumed) | 604 |  |
| CC[C@H](C)[C@H](NC(=O)[C@H](Cc1ccc(O)cc1)NC(=O)[C@H](CC(C)C)NC(=O)[C@@H](N)CO)C(=O)N[C@H](C(=O)NCC(=O)N[C@@H](Cc1ccccc1)C(=O)N[C@@H](Cc1ccc(O)cc1)C(=O)NCC(=O)O)C(C)C (H-SLYIVGFYG-OH; N-terminus and C-terminus assumed) | 1060 |  |
| CSCC[C@H](NC(=O)[C@H](CCCCN)NC(=O)CNC(=O)[C@H](CC(N)=O)NC(=O)[C@H](CCC(N)=O)NC(=O)[C@@H](N)Cc1ccccc1)C(=O)N[C@@H](C)C(=O)N[C@@H](CC(C)C)C(=O)N[C@@H](CO)C(=O)O [FQNGKMALS] (H-FQNGKMALS-OH; N-terminus and C-terminus assumed) | 3280 |  |
| CC[C@H](C)[C@H](N)C(=O)N[C@H](C(=O)N[C@@H](C)C(=O)N[C@@H](Cc1ccccc1)C(=O)N[C@@H](Cc1ccccc1)C(=O)N[C@@H](CC(C)C)C(=O)N[C@@H](CC(C)C)C(=O)N[C@@H](CC(=O)O)C(=O)N[C@H](C(=O)O)[C@@H](C)CC)[C@@H](C)O (H-ITAFFLLDI-OH; N-terminus and C-terminus assumed) | 78.7 |  |
| CC(C)C[C@H](NC(=O)[C@H](CC(C)C)NC(=O)[C@H](CC(C)C)NC(=O)[C@H](CC(=O)O)NC(=O)[C@H](CO)NC(=O)[C@H](CC(C)C)NC(=O)[C@@H]1CCCN1C(=O)[C@@H](NC(=O)[C@@H](NC(=O)[C@@H](N)CC(N)=O)C(C)C)C(C)C)C(=O)O (H-NVVPLSDLLL-OH; N-terminus and C-terminus assumed) | 741 |  |
| CC[C@H](C)[C@H](NC(=O)[C@@H]1CCCN1C(=O)[C@H](CC(C)C)NC(=O)[C@@H](N)CC(C)C)C(=O)N1CCC[C@H]1C(=O)N1CCC[C@H]1C(=O)N[C@@H](CC(C)C)C(=O)N[C@@H](CO)C(=O)N1CCC[C@H]1C(=O)N[C@@H](CO)C(=O)O |  | IC50 (Observed Affinity (IC50): 449 nM |
| CC(C)C[C@H](NC(=O)[C@@H](N)C(C)C)C(=O)N[C@H](C(=O)N[C@H](C(=O)N[C@H](C(=O)N[C@@H](CO)C(=O)N[C@H](C(=O)N[C@@H](CC(=O)O)C(=O)N[C@H](C(=O)O)C(C)C)[C@@H](C)O)[C@@H](C)O)C(C)C)[C@@H](C)O (H-VLTVTSTDV-OH) | 295 |  |
| CSCC[C@H](NC(=O)[C@H](Cc1c[nH]cn1)NC(=O)[C@@H](NC(=O)[C@H](CC(C)C)NC(=O)[C@@H](NC(=O)[C@@H]1CCCN1C(=O)[C@H](C)NC(=O)[C@H](CC(C)C)NC(=O)[C@H](C)N)[C@@H](C)O)[C@@H](C)O)C(=O)O (H-ALAPTLTHM-OH; N-terminus and C-terminus assumed) | 59 |  |
| CC[C@H](C)[C@H](NC(=O)[C@H](CC(=O)O)NC(=O)[C@H](CC(C)C)NC(=O)[C@H](CC(C)C)NC(=O)[C@H](Cc1ccccc1)NC(=O)[C@H](Cc1ccccc1)NC(=O)[C@H](C)NC(=O)[C@@H](NC(=O)[C@@H](NC(=O)[C@@H](N)Cc1ccc(O)cc1)[C@@H](C)CC)[C@@H](C)O)C(=O)O (H-YITAFFLLDI-OH; N-terminus and C-terminus assumed) | 64.5 |  |
| CC(C)C[C@H](NC(=O)[C@H](CCCNC(=N)N)NC(=O)[C@@H](NC(=O)[C@@H](N)CC(C)C)C(C)C)C(=O)N[C@@H](CO)C(=O)N[C@@H](CO)C(=O)N[C@@H](CS)C(=O)N[C@H](C(=O)N1CCC[C@H]1C(=O)N[C@H](C(=O)O)C(C)C)C(C)C (H-LVRLSSCVPV-OH; N-terminus and C-terminus assumed) | 1240 |  |
| CC(C)C[C@H](NC(=O)[C@H](CO)NC(=O)[C@@H](NC(=O)[C@@H](NC(=O)[C@H](CO)NC(=O)[C@H](CO)NC(=O)[C@H](Cc1c[nH]c2ccccc12)NC(=O)[C@H](CCC(N)=O)NC(=O)[C@@H](N)CCCCN)C(C)C)[C@@H](C)O)C(=O)O (H-KQWSSVTSL-OH; N-terminus and C-terminus assumed) | 26.5 |  |
| CC[C@H](C)[C@H](NC(=O)[C@H](CC(C)C)NC(=O)[C@@H]1CCCN1C(=O)[C@H](Cc1ccccc1)NC(=O)[C@H](CC(C)C)NC(=O)[C@@H](N)CCC(=O)O)C(=O)N[C@@H](Cc1ccccc1)C(=O)N1CCC[C@H]1C(=O)N[C@@H](C)C(=O)O | 13 |  |
| CC[C@H](C)[C@H](NC(=O)[C@H](CC(N)=O)NC(=O)[C@H](CCSC)NC(=O)[C@@H](N)Cc1c[nH]cn1)C(=O)N[C@@H](C)C(=O)N[C@@H](CC(N)=O)C(=O)N[C@@H](CC(C)C)C(=O)N[C@@H](CC(C)C)C(=O)NCC(=O)N[C@@H](C)C(=O)O (H-HMNIANLLGA-OH; N-terminus and C-terminus assumed) |  | IC50 (Observed Affinity (IC50): 430 nM |
| CC[C@H](C)[C@H](N)C(=O)N[C@H](C(=O)N[C@@H](CCC(=O)O)C(=O)N[C@@H](Cc1ccccc1)C(=O)N[C@@H](CCSC)C(=O)N[C@H](C(=O)N[C@@H](Cc1ccc(O)cc1)C(=O)NCC(=O)N[C@@H](CC(N)=O)C(=O)N[C@@H](CC(C)C)C(=O)O)[C@@H](C)O)[C@@H](C)CC (H-IIEFMTYGNL-OH; N-terminus and C-terminus assumed) |  | IC50 (Observed Affinity (IC50): 9700 nM |
| CC[C@H](C)[C@H](NC(=O)[C@@H]1CCCN1C(=O)[C@H](CCCNC(=N)N)NC(=O)[C@H](CCC(N)=O)NC(=O)[C@H](CC(N)=O)NC(=O)[C@H](CCSC)NC(=O)CNC(=O)CNC(=O)[C@H](CCSC)NC(=O)[C@@H](N)CS)C(=O)O | 3670 |  |
| CC(C)C[C@H](NC(=O)[C@H](CCCNC(=N)N)NC(=O)[C@@H](NC(=O)[C@H](CC(C)C)NC(=O)[C@@H](N)CO)C(C)C)C(=O)N[C@@H](CO)C(=O)N[C@@H](CO)C(=O)N[C@@H](CS)C(=O)N[C@H](C(=O)O)C(C)C (H-SLVRLSSCV-OH; N-terminus and C-terminus assumed) | 29.9 |  |
| CC(C)C[C@H](NC(=O)[C@H](CO)NC(=O)CNC(=O)[C@H](CC(C)C)NC(=O)[C@H](CO)NC(=O)[C@H](CCCNC(=N)N)NC(=O)[C@H](Cc1c[nH]c2ccccc12)NC(=O)[C@H](CCC(N)=O)NC(=O)[C@@H](N)C(C)C)C(=O)O (H-VQWRSLGSL-OH; N-terminus and C-terminus assumed) | 4730 |  |
| CC(C)C[C@H](NC(=O)[C@@H](N)CC(C)C)C(=O)N[C@@H](CO)C(=O)N[C@H](C(=O)N1CCC[C@H]1C(=O)N1CCC[C@H]1C(=O)N[C@@H](CC(C)C)C(=O)N[C@@H](CO)C(=O)N1CCC[C@H]1C(=O)N[C@@H](CO)C(=O)O)[C@@H](C)O (H-LLSTPPLSPS-OH; N-terminus and C-terminus assumed) |  | IC50 (Observed Affinity (IC50): 1770 nM |
| CC(C)C[C@H](NC(=O)[C@H](C)NC(=O)[C@H](CCC(=O)O)NC(=O)[C@H](CCC(N)=O)NC(=O)[C@@H](NC(=O)[C@H](CC(=O)O)NC(=O)[C@H](Cc1ccccc1)NC(=O)[C@H](CCC(=O)O)NC(=O)[C@H](CCC(N)=O)NC(=O)[C@@H](N)CC(C)C)C(C)C)C(=O)O [LQEFDVQEAL] (H-LQEFDVQEAL-OH) | 50300 |  |
| CC[C@H](C)[C@H](N)C(=O)N[C@@H](CC(C)C)C(=O)N[C@H](C(=O)N[C@@H](CCCNC(=N)N)C(=O)N[C@@H](CCCCN)C(=O)N[C@@H](C)C(=O)N[C@@H](CCSC)C(=O)N[C@H](C(=O)N[C@H](C(=O)O)C(C)C)[C@@H](C)O)[C@@H](C)CC (H-ILIRKAMTV-OH; N-terminus and C-terminus assumed) | 19.5 |  |
| CC[C@H](C)[C@H](NC(=O)[C@@H](NC(=O)[C@@H](N)CC(C)C)[C@@H](C)O)C(=O)N[C@@H](CC(N)=O)C(=O)N[C@@H](CCCCN)C(=O)N[C@@H](CCC(=O)O)C(=O)N[C@@H](CCC(=O)O)C(=O)N[C@@H](C)C(=O)N[C@@H](CC(C)C)C(=O)O [LTINKEEAL] | 4410 |  |
| CC[C@H](C)[C@H](NC(=O)[C@H](CC(C)C)NC(=O)[C@@H](N)CCC(N)=O)C(=O)N[C@@H](CCSC)C(=O)N[C@@H](CCC(N)=O)C(=O)N[C@@H](CC(C)C)C(=O)N[C@@H](CCSC)C(=O)N1CCC[C@H]1C(=O)N[C@@H](Cc1ccccc1)C(=O)NCC(=O)O (H-QLIMQLMPFG-OH; N-terminus and C-terminus assumed) | 5930 | Kd (EGFR T790M peptides, HLA allele A02.01, read-out: Affinity): 5210 nM |
| CC(C)C[C@H](NC(=O)[C@H](CC(C)C)NC(=O)CNC(=O)[C@H](Cc1ccc(O)cc1)NC(=O)[C@H](CC(C)C)NC(=O)[C@@H]1CCCN1C(=O)[C@@H](NC(=O)[C@@H](NC(=O)[C@@H](N)CC(N)=O)C(C)C)C(C)C)C(=O)O (H-NVVPLYGLL-OH; N-terminus and C-terminus assumed) | 10500 |  |
| CC[C@H](C)[C@H](N)C(=O)N[C@H](C(=O)N[C@@H](C)C(=O)N[C@@H](Cc1ccccc1)C(=O)N[C@@H](Cc1ccccc1)C(=O)N[C@@H](Cc1ccccc1)C(=O)N[C@@H](CS)C(=O)N[C@@H](Cc1c[nH]c2ccccc12)C(=O)N[C@H](C(=O)O)[C@@H](C)CC)[C@@H](C)O (H-ITAFFFCWI-OH; N-terminus and C-terminus assumed) | 7490 |  |
| CC[C@H](C)[C@H](NC(=O)[C@@H]1CCCN1C(=O)[C@H](CC(C)C)NC(=O)[C@H](CC(C)C)NC(=O)[C@H](CCC(=O)O)NC(=O)[C@@H](N)Cc1ccccc1)C(=O)N1CCC[C@H]1C(=O)N1CCC[C@H]1C(=O)N[C@@H](CC(C)C)C(=O)O (H-FELLPIPPL-OH; N-terminus and C-terminus assumed) |  | IC50 (Observed Affinity (IC50): 553 nM |
| CC[C@H](C)[C@H](NC(=O)[C@H](Cc1ccccc1)NC(=O)[C@H](CCCNC(=N)N)NC(=O)[C@@H]1CCCN1C(=O)[C@H](CC(C)C)NC(=O)[C@H](CO)NC(=O)[C@H](CCC(N)=O)NC(=O)[C@@H](N)CC(C)C)C(=O)N[C@@H](CC(C)C)C(=O)N[C@@H](CCSC)C(=O)O | 413 |  |
